According to PMC4785065 (Bioorganic & medicinal chemistry letters, 2016):

Molecular target: human topoisomerase IIα (Homo sapiens, UniProt P11388)
Experiment: DNA cleavage inhibition assay
Type: biochemical

human topoisomerase IIα, sequence (P11388 whole entry): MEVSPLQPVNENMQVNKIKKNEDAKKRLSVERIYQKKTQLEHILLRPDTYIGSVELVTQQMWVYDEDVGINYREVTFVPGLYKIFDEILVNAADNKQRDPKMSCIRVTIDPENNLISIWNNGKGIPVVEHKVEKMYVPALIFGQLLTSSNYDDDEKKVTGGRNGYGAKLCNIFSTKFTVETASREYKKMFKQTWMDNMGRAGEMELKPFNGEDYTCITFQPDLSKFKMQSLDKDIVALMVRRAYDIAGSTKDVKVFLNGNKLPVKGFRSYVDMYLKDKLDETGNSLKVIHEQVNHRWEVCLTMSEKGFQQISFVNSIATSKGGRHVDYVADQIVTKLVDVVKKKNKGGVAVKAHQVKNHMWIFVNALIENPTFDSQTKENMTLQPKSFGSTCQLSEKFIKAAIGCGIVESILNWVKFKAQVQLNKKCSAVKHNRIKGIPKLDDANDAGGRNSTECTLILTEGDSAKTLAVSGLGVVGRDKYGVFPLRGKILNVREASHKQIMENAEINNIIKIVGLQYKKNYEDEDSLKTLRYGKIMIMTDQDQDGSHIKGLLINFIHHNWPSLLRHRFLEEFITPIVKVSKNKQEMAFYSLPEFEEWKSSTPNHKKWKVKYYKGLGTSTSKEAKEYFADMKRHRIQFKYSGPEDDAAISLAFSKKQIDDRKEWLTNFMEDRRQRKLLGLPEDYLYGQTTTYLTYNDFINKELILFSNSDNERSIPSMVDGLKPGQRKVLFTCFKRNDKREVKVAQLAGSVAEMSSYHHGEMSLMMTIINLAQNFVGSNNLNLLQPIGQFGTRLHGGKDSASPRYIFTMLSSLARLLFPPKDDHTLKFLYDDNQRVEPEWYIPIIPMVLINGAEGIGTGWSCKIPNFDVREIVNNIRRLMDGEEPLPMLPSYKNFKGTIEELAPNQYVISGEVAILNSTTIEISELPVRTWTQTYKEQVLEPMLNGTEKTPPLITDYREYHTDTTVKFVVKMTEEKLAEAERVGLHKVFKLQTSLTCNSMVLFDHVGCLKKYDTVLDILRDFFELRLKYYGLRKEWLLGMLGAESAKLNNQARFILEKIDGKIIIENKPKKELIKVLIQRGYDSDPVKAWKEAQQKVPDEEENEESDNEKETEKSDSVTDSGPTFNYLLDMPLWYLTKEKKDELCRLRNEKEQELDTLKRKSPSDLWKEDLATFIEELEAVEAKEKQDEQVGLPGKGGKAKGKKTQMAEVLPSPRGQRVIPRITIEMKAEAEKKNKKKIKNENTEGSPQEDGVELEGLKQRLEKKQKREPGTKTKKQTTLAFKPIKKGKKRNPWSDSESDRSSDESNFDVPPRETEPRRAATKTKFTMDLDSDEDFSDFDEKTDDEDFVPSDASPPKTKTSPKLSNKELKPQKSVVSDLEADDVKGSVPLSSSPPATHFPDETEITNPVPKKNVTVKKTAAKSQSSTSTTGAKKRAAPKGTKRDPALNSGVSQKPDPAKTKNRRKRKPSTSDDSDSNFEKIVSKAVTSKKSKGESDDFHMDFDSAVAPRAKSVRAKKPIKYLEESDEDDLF

How did the IC50 turn out when `Cc1c2ccncc2c(C)c2c1[nH]c1ccccc12` [ET, 5,11-dimethyl-6H-pyrido[4,3-b]carbazole] was run?
Its IC50 is greater than 200 µM.
